# Test results published in US20090143438A1, “Novel Pyridine Derivative Having Anti-Helicobacter Pylori Activity” (Arigen Pharmaceuticals, Inc., priority 2006, published 2009).
# What was measured:
# [1] = test system: H. pylori, ATCC 43504; test: Antibacterial power test, Columbia agar, MIC; type: cell-based, Helicobacter pylori; conditions: Helicobacter pylori, ATCC43504, 72 h, 37° C., pH 7.0, 3 days, read on 4th day, read-out: MIC, in vitro anti-Helicobacter pylori activity
# Procedure: An in vitro test was performed in a Columbia agar medium using a standard strain of H. pylori, ATCC 43504. […] Each of the test objects was dissolved in a 1% DMSO solution. Furthermore, as antibiotic control drugs, ampicillin from the penicillin family (control drug 1), gentamycin from the aminoglycoside family (control drug 2), tetracycline from the tetracycline family (control drug 3), and ofloxacin from the new quinolone family (control drug 4) were used.
# [2] = test system: H. pylori NCTC 11637; test: In vitro MIC test in Columbia agar, standard strain; type: cell-based, Helicobacter pylori; conditions: Helicobacter pylori, NCTC11637, 72 h; standard strain NCTC 11637; 37° C., pH 7.0, 3 days
# Procedure: (§1) An in vitro test was performed in a Columbia agar medium using standard strains of H. pylori, NCTC 11637 and 11916, clinical isolates PT#1045482, PT#1045483 and PT#1045484, and ofloxacin- and roxithromycin-resistant, clinical isolates TY2, 4 and 5. Each of the test objects was dissolved in a 1% DMSO solution. Furthermore, as antibiotic control drugs, roxithromycin from the macrolide family and ofloxacin from the new quinolone family were used. The strains were cultured at 37° C. and pH 7.0 for 3 days, and on the 4th day, the minimum inhibitory concentrations (MIC, μg/ml) were determined.
# [3] = test system: H. pylori NCTC 11916; test: as above; type: cell-based, Helicobacter pylori; conditions: Helicobacter pylori, NCTC11916, 72 h; standard strain NCTC 11916; 37° C., pH 7.0, 3 days
# Procedure: as §1
# [4] = test system: H. pylori ofloxacin- and roxithromycin-resistant clinical isolate TY5; test: In vitro MIC test in Columbia agar, resistant clinical isolate; type: cell-based; conditions: Helicobacter pylori, 72 h; resistant strain TY5; 37° C., pH 7.0, 3 days
# Procedure: as §1
# [5] = test system: H. pylori ofloxacin- and roxithromycin-resistant clinical isolate TY4; test: as above; type: cell-based; conditions: Helicobacter pylori, 72 h; resistant strain TY4; 37° C., pH 7.0, 3 days
# Procedure: as §1
# [6] = test system: H. pylori ofloxacin- and roxithromycin-resistant clinical isolate TY2; test: as above; type: cell-based; conditions: Helicobacter pylori, 72 h; resistant strain TY2; 37° C., pH 7.0, 3 days
# Procedure: as §1
# [7] = test system: H. pylori clinical isolate PT#1045484; test: In vitro MIC test in Columbia agar, clinical isolate; type: cell-based; conditions: Helicobacter pylori, 72 h, 37° C., pH 7.0, 3 days
# Procedure: as §1
# [8] = test system: H. pylori clinical isolate PT#1045483; test: as above; type: cell-based; conditions: Helicobacter pylori, 72 h, 37° C., pH 7.0, 3 days
# Procedure: as §1
# [9] = test system: H. pylori clinical isolate PT#1045482; test: as above; type: cell-based; conditions: Helicobacter pylori, 72 h, 37° C., pH 7.0, 3 days
# Procedure: as §1
# [10] = test system: Enterococcus faecalis (VRE, ATCC 51575); test: In vitro antibacterial test against various bacteria, MIC; type: cell-based; conditions: 37° C., 20 to 48 hours
# Procedure: (§2) An in vitro antibacterial test for the compounds of Examples 1 to 6 against various bacteria was performed. As gram-negative bacteria, Escherichia coli (ATCC 10536, ATCC 25922), Klebsiella pneumonia (ATCC 10031), Proteus vulgaris (ATCC 13315), Pseudomonas aeruginosa (ATCC 9027), Salmonella typhimurium (ATCC 13311), and as gram-positive bacteria, Staphylococcus aureus, MRSA (ATCC 33591), Staphylococcus epidermidis (ATCC 12228), Streptococcus pneumonia (ATCC 6301), Mycobacterium ranae (ATCC 110) and Enterococcus faecalis (VRE, ATCC 51575) were used. The various bacteria were cultured at 37° C. for 20 to 48 hours by conventional methods, and the minimum inhibitory concentrations (MIC, μg/ml) were determined. Each of the test objects were dissolved in a 1% DMSO solution. Furthermore, as an antibiotic control drug, gentamycin (GEM) from the aminoglycoside family was used.
# [11] = test system: Pseudomonas aeruginosa (ATCC 9027); test: as above; type: cell-based; conditions: ATCC9027, 37° C., 20 to 48 hours, read-out: MIC
# Procedure: as §2
# [12] = test system: Staphylococcus aureus, MRSA (ATCC 33591); test: as above; type: cell-based; conditions: 37° C., 20 to 48 hours, read-out: MIC
# Procedure: as §2
# [13] = test system: Klebsiella pneumonia (ATCC 10031); test: as above; type: cell-based; conditions: Klebsiella pneumoniae, ATCC10031, 37° C., 20 to 48 hours, read-out: MIC
# Procedure: as §2
# [14] = test system: Escherichia coli (ATCC 10536); test: as above; type: cell-based; conditions: ATCC10536, 37° C., 20 to 48 hours, read-out: MIC
# Procedure: as §2
# [15] = test system: Escherichia coli (ATCC 25922); test: as above; type: cell-based; conditions: ATCC25922, 37° C., 20 to 48 hours, read-out: MIC
# Procedure: as §2
# [16] = test system: Mycobacterium ranae (ATCC 110); test: as above; type: cell-based; conditions: ATCC110, 37° C., 20 to 48 hours, read-out: MIC
# Procedure: as §2
# [17] = test system: Streptococcus pneumonia (ATCC 6301); test: as above; type: cell-based; conditions: Streptococcus pneumoniae, ATCC6301, 37° C., 20 to 48 hours
# Procedure: as §2
# [18] = test system: Salmonella typhimurium (ATCC 13311); test: as above; type: cell-based; conditions: Salmonella enterica, 37° C., 20 to 48 hours, read-out: MIC
# Procedure: as §2
# [19] = test system: Staphylococcus epidermidis (ATCC 12228); test: as above; type: cell-based; conditions: ATCC12228, 37° C., 20 to 48 hours, read-out: MIC
# Procedure: as §2
# [20] = test system: Proteus vulgaris (ATCC 13315); test: as above; type: cell-based; conditions: ATCC13315, 37° C., 20 to 48 hours, read-out: MIC
# Procedure: as §2
# [21] = test system: Helicobacter pylori NCTC11916; conditions: standard strain NCTC11916; data from Table 6 of JP-A No. 7-69888; cited from earlier work
# [22] = test system: Helicobacter pylori NCTC11637; conditions: standard strain NCTC11637; data from Table 6 of JP-A No. 7-69888; cited from earlier work
SMILES,MIC [1],MIC [2],MIC [3],MIC [4],MIC [5],MIC [6],MIC [7],MIC [8],MIC [9],MIC [10],MIC [11],MIC [12],MIC [13],MIC [14],MIC [15],MIC [16],MIC [17],MIC [18],MIC [19],MIC [20],further results
"Cc1c(OCCCO)ccnc1CSc1nc2ccccc2[nH]1 [Comparative Compound 2, 2-[{4-(3-hydroxypropoxy)-3-methylpyridin-2-yl}methylthio]-1H-benzimidazole, reference compound]",3 µg/mL,–,–,–,–,–,–,–,–,–,–,–,–,–,–,–,–,–,–,–,–
"CN(C)[C@@H]1C(O)=C(C(N)=O)C(=O)[C@@]2(O)C(O)=C3C(=O)c4c(O)cccc4[C@@](C)(O)[C@H]3C[C@@H]12 [Control Drug 3 (Tetracycline), tetracycline, reference compound]",0.3 µg/mL,–,–,–,–,–,–,–,–,–,–,–,–,–,–,–,–,–,–,–,–
"CC1COc2c(N3CCN(C)CC3)c(F)cc3c(=O)c(C(=O)O)cn1c23 (stereo not shown) [Control Drug 4 (Ofloxacin), ofloxacin, reference compound]",1 µg/mL,0.8 µg/mL,0.8 µg/mL,2.5 µg/mL,25 µg/mL,2.5 µg/mL,0.4 µg/mL,0.8 µg/mL,0.8 µg/mL,–,–,–,–,–,–,–,–,–,–,–,–
"CC[C@H]1OC(=O)[C@H](C)[C@@H](O[C@H]2C[C@@](C)(OC)[C@@H](O)[C@H](C)O2)[C@H](C)[C@@H](O[C@@H]2O[C@H](C)C[C@H](N(C)C)[C@H]2O)[C@](C)(O)C[C@@H](C)/C(=N\OCOCCOC)[C@H](C)[C@@H](O)[C@]1(C)O [RXM, roxithromycin, reference compound]",–,0.2 µg/mL,0.1 µg/mL,3.5 µg/mL,> 100 µg/mL,> 100 µg/mL,0.2 µg/mL,0.2 µg/mL,0.4 µg/mL,–,–,–,–,–,–,–,–,–,–,–,MIC [21]: 0.1 µg/mL; MIC [22]: 0.2 µg/mL

# Continued by falling MIC [1], values first:
MIC [1],MIC [2],MIC [3],MIC [4],MIC [5],MIC [6],MIC [7],MIC [8],MIC [9],MIC [10],MIC [11],MIC [12],MIC [13],MIC [14],MIC [15],MIC [16],MIC [17],MIC [18],MIC [19],MIC [20],SMILES,further results
0.3 µg/mL,0.3 µg/mL,0.3 µg/mL,0.3 µg/mL,0.3 µg/mL,0.2 µg/mL,0.3 µg/mL,0.3 µg/mL,0.2 µg/mL,> 100 µg/mL,> 100 µg/mL,> 100 µg/mL,> 100 µg/mL,> 100 µg/mL,> 100 µg/mL,> 100 µg/mL,> 100 µg/mL,> 100 µg/mL,> 100 µg/mL,> 100 µg/mL,"Cc1c(OCCCCCO)ccnc1CSc1nc2ccccc2[nH]1 [Example 1, 2-[{4-(5-hydroxypentyloxy)-3-methylpyridin-2-yl}methylthio]-1H-benzimidazole]",–
0.1 µg/mL,–,–,–,–,–,–,–,–,–,–,–,–,–,–,–,–,–,–,–,"CC1(C)S[C@@H]2[C@H](NC(=O)[C@H](N)c3ccccc3)C(=O)N2[C@H]1C(=O)O [Control Drug 1 (Ampicillin), ampicillin, reference compound]",–
0.1 µg/mL,0.1 µg/mL,0.1 µg/mL,0.1 µg/mL,0.1 µg/mL,0.3 µg/mL,0.3 µg/mL,0.1 µg/mL,0.1 µg/mL,> 100 µg/mL,> 100 µg/mL,> 100 µg/mL,> 100 µg/mL,> 100 µg/mL,> 100 µg/mL,> 100 µg/mL,> 100 µg/mL,> 100 µg/mL,> 100 µg/mL,> 100 µg/mL,"Cc1c(OCCCCCCO)ccnc1CSc1nc2ccccc2[nH]1 [Example 2, 2-[{4-(6-hydroxyhexyloxy)-3-methylpyridin-2-yl}methylthio]-1H-benzimidazole]",–
0.1 µg/mL,0.1 µg/mL,0.1 µg/mL,0.1 µg/mL,0.1 µg/mL,0.1 µg/mL,0.1 µg/mL,0.1 µg/mL,0.1 µg/mL,> 100 µg/mL,> 100 µg/mL,> 100 µg/mL,> 100 µg/mL,> 100 µg/mL,> 100 µg/mL,> 100 µg/mL,> 100 µg/mL,> 100 µg/mL,> 100 µg/mL,> 100 µg/mL,"Cc1c(OCCCCCCCO)ccnc1CSc1nc2ccccc2[nH]1 [Example 3, 2-[{4-(7-hydroxyheptyloxy)-3-methylpyridin-2-yl}methylthio]-1H-benzimidazole]",–
